Results on one molecule are retold here after US5407683A (Research Corporation Technologies, Inc., priority 1992, dated 1995).

Values after ≈ are worked out from the molar mass of the structure shown.

A short description of series [1]: thermal stability of taxol. As to conditions: 130° C. The class given is physicochemical. The method, then:
The process steps can in many cases be performed at about room temperature. […] The process steps should be performed to avoid melting or decomposition of the matrix compound, i.e., the process should be performed at temperatures less than about the melting point or decomposition point of the matrix compound, generally about 140° C. or less. […] Thus preferred temperatures for performing the process steps are about 60° C. to about 130° C.

The nature of series [2]: precipitation of taxol from oil solution under vacuum. In kind it is physicochemical. The following applies: bath temperatures less than 50° to 60° C.
Series [3] in a line: solubilization of taxol in squalane oil. In kind it is physicochemical. As to conditions: 4.0 mg taxol in 0.400 ml squalane oil, methanol removed. The method, then: The methanol was then removed with heating and nitrogen blanket at about 60° C. for 10 minutes.
A further series deals with leukemia. As to conditions: cited from earlier work.
For another series, the system named is colon. As to conditions: cited from earlier work.
A further series relates to breast. The following applies: cited from earlier work.
The subject of another series is melanoma. The following applies: cited from earlier work.
For another series, the system named is sarcomas. The following applies: cited from earlier work.
The subject of another series is Lewis lung tumor. As to conditions: cited from earlier work.
For a further series, the system named is microtubules. As to conditions: in vitro; cited from earlier work.
For series [4] the following is noted: cited from earlier work.
For series [5] the following is noted: nonemulsified form; cited from earlier work.

With `CC(=O)O[C@H]1C(=O)[C@@]2(C)[C@H]([C@H](OC(=O)c3ccccc3)[C@]3(O)C[C@H](OC(=O)[C@H](O)[C@@H](NC(=O)c4ccccc4)c4ccccc4)C(C)=C1C3(C)C)[C@]1(OC(C)=O)CO[C@@H]1C[C@@H]2O` [Taxol], the thermal stability result in series [1] is recorded as “stable for at least about two hours”. For the same molecule, in series [2], the “precipitation from the oil solution” value was “tends to precipitate from the oil solution”. For the same molecule, the “solubilization of taxol in squalane oil” value in series [3] is listed as “completely solubilized”. The activity against leukemia result in the series with leukemia is given as “active”. Further, the “activity against colon tumor system” value in the series on colon was “active”. In addition, the “activity against breast tumor system” value in the series with breast is “active”. In the series on melanoma, the activity against melanoma entry was “active”. In addition, the activity against sarcomas entry in the series on sarcomas was “active”. In addition, the “activity against Lewis lung tumor system” value in the series with Lewis lung tumor is on record as “active”. Further, the “concentrations that stabilize microtubules, thus disrupting normal cell division” value with microtubules was 0.1 to 10.0 µg/mL. Besides, the solubility in vehicle in series [4] (ethanol:cremophor EL:isotonic saline (5:5:90)) was at most 600 µg/mL. In addition, the “solubility in most oils” value in series [4] (safflower, olive and soybean oil) was 300 to 600 µg/mL. Besides, the “solubility in soybean oil” value in [4] (soybean oil) is 300 µg/mL (≈ 351 µM). For the same molecule, the solubility in triacetin in series [4] (triacetin) was 30000 µg/mL (≈ 35100 µM). Also, the “degradation in the stomach” value in series [5] is reported as “degraded in the stomach”.
